From PMC11750672, “The in vivo metabolic pathway of Deg-AZM and in vitro investigations into the contribution of drug metabolizing enzymes and drug transporters in the drug interactions of Deg-AZM, a clinical-stage new transgelin agonist” (Frontiers in Pharmacology, 2025)

Key:
[1] = Exposure profiles of Deg-AZM and metabolites in rat plasma, urine, feces and bile (UPLC-QTOF-MS); type: in vivo, rats; settings: / = not detected; for Proportion in total related substances, Feces: rat feces 0-24 h; for Proportion in total related substances, Plasma: rat plasma 0.167-8 h after oral Deg-AZM, by AUC0-t of chromatographic peak area; for Proportion in total related substances, Urine: rat urine 0-24 h
Description: (§1) The plasma samples at 0.167 h, 0.5 h, 3 h and 8 h after administration were obtained from the study of tissue distribution in rats ([Gu et al., 2024]). Urine, feces and bile samples at 0–24 h after administration were obtained from the excretion study of a single gavage administration of 25 mg/kg Deg-AZM in rats ([Gu et al., 2024]).
Plasma samples were precipitated with methanol at a ratio of 1:3. Urine samples were diluted with 50% methanol at a ratio of 1:80. The feces was thoroughly ground and sonicated with a 50% methanol at a ratio of 1 g/10 mL to obtain the homogenate, then the homogenate were precipitated with methanol at a ratio of 1:1. Bile samples were precipitated with 50% methanol at a ratio of 1:1. The above obtained samples were vortexed for 1 min and centrifugated at 4°C, 12,000 rpm for 10 min. Finally, the upper layer was analyzed using the UPLC-QTOF-MS system.
The metabolites of Deg-AZM in the plasma, urine, feces and bile samples were identified by UPLC-QTOF-MS system. Liquid chromatography was performed on an ACQUITY UPLC^TM I-Class UPLC unit with a Waters ACQUITY UPLC HSS T3 (100 × 2.1 mm, 1.8 µm). A gradient program was employed with the mobile phase combining solvent A (0.02% formic acid in 5% acetonitrile) and solvent B (acetonitrile) as follows: 100% A (0–0.5 min), 100%–85% A (0.5–7 min), 85%–5% A (7–9 min), 5% A (9–12 min), 5%–100% A (12–15 min). The flow rate was 0.40 mL/min. The column temperature was maintained at 40°C.
A Waters Q-TOF Xevo G2-XS Spectrometer equipped with ESI source under positive ion mode was utilized to conduct mass spectrometry detection, for which the MS^E mode was set at the mass range of 100–1,000 Da. The cone voltage was 40 V. The desolvation temperature was set at 500°C and source temperature was 100°C. The desolvation gas flow rate was 800 L/h and the cone gas flow rate was 50 L/h. In MS^E centroid mode, the MS data were acquired with the low energy function in the trap collision energy (6 eV), and the tandem mass data were acquired with the high energy function in the ramp trap collision energy (35–45 eV).
The extraction ion chromatogram of plasma samples at 0.167 h, 0.5 h, 3 h and 8 h after administration of Deg-AZM in rats was shown in Figure 2. The extraction ion chromatogram of urine, feces and bile samples collected from 0 to 24 h after oral administration of Deg-AZM in rats was shown in Figure 3. The AUC0-t of Deg-AZM and its metabolites in plasma sample were calculated by trapezoidal rule based on the chromatographic peak area. 21 metabolites were found in rat plasma, with M0 (Deg-AZM) and metabolite M2 (demethylated) being the main exposure forms in rat plasma. M0 and M2 accounted for 61.6% and 23.0% of the total related substances in rat plasma, respectively. The relative proportions of Deg-AZM and its metabolites in urine, feces and bile samples were evaluated by the chromatographic peak area, as shown in Figure 4. The detailed proportion of Deg-AZM and its metabolites could be found in Supplementary Table S1. M0 and 28 metabolites were found in the urine of rats. […] M0 and 42 metabolites were found in the feces of rats. Metabolite M1-2 (monohydroxylation, 18.1%) and metabolite M2 (16.6%) were the main forms of fecal excretion of Deg-AZM in rats after oral administration. M0 and 38 metabolites were found in the bile samples of rats. Metabolite M1-2 (monohydroxylation, 19.2%) and metabolite M2 (16.5%) were the main forms of biliary excretion of Deg-AZM in rats after oral administration.

[2] = Excretion and material balance in rats (urine, feces 0-24 h); type: in vivo; settings: through the kidneys and urine
Description: as §1
The types and proportions of metabolites in the excretion pathway were elucidated in this study. […] Based on the peak area in this study, the total amount of metabolites in urine and feces of rats was 0.589 times and 9.96 times that of the original form of Deg-AZM, respectively. The total amount of Deg-AZM excreted in its original form and various metabolites in urine and feces was 23.7% and 19.8% of the administered dose, respectively, with a material balance coefficient of 43.5%. Deg-AZM was mainly excreted in the form of its original form M0 (cumulative excretion fraction of 14.9%) and metabolite M2 (cumulative excretion fraction of 5.33%) through the kidneys and urine, and in the form of metabolite M1-2 (cumulative excretion fraction of 4.29%) and M2 (cumulative excretion fraction of 3.93%) through the intestines and feces. […] It is necessary to obtain standard samples of the main metabolites for accurate quantification or use isotope tracing techniques to further improve material balance research in the clinical stage.

Caco-2 cell monolayer = test: Bidirectional transport in Caco-2 cell monolayer; type: in vitro ADME, human; settings: 0.5 μCi/mL, high-permeability control; n = 3
Description: (§2) The human colon adenocarcinoma Caco-2 cell line was provided by Institute of Basic Medicine, Chinese Academy of Medical Sciences (Beijing, China). Caco-2 cells were cultured in a high sugar DMEM medium containing 10% (v/v) fetal bovine serum at 37°C and 5% CO2 incubator. Caco-2 cells (2.5 ×10^5/mL) was inoculated into Transwell polycarbonate membrane 12 well plate. The culture medium was changed every 2 days for the first 14 days, and then every day. After 21 consecutive days, fully differentiated cell monolayers were obtained for drug transport assays.
(§3) Transepithelial electrical resistance (TEER) was used to indicate monolayer integrity. The electrode of the Millcell ERS-2 voltammeter was placed in HBSS solution for 20 min to pre-balance. At the same time, the culture medium was removed from the Transwell culture plate, 0.5 mL of pre-heated HBSS solution was added into the Apical (AP) of transwell, 1.5 mL of pre-heated HBSS solution was added into the Basolateral (BL) of transwell. After that, the transwell was balanced at 37°C for 20 min and then replaced the HBSS solution with the pre-heated HBSS solution, the TEER value was measured finally. Caco-2 cell monolayers with TEER >350 Ω cm^2 which means that the cells have formed a tight monolayer, were used for the experiment. The TEER value was calculated according to the following formula: TEER=TEERT ‐ TEERc×A where TEERT represented the TEER value (Ω) of the measured Transwell chamber with Caco-2 cells, TEERC was the TEER value (Ω) of the transwell chamber in the control group, and A was the membrane area of the transwell cavity (1.12 cm^2 in this experiment).
(§4) In order to evaluate the usability of the Transwell model research, [^3H] Propranolol (0.5 μCi/mL) and [^14C] PEG4000 (1 μCi/mL) served as high-permeability and impermeability controls to verify the uptake direction on Caco-2 cell monolayer, respectively. Rhodamine 123 was used as a positive control for efflux mechanism in bidirectional transport assay on Caco-2 cell monolayer.
(§5) The transmembrane permeability of Deg-AZM (2, 10 or 50 µM) and the potential to inhibit P-gp by Deg-AZM (2, 10 or 50 µM) were evaluated using Caco-2 cell monolayer both apical-to-basolateral (A-B) and basolateral-to-apical (B-A) directions at 37°C for 1 h, the experiments were conducted using quinidine (50 μM) as the inhibitor for P-gp. At the end of incubation, receiver and donor samples were both diluted by assay buffer and analyzed by LC-MS/MS.

[3] = Bidirectional transport in Caco-2 cell monolayer; type: in vitro ADME, human; settings: human, Caco-2, efflux positive control, (−) without quinidine
Description: as §2, §3, §4, §5

P-gp = tested on: T1, P-gp; test: Bidirectional transport in Caco-2 cell monolayer with P-gp inhibitor quinidine; type: in vitro ADME, human; settings: human, Caco-2, with quinidine 50 μM; efflux positive control, (+) quinidine; n = 3
T1 construct: evaluated using Caco-2 cell monolayer both apical-to-basolateral (A-B) and basolateral-to-apical (B-A) directions; endogenous in cells; host or cells: Caco-2
Description: as §2, §3, §4, §5

CYP2B6 = test: CYP induction (mRNA, qPCR) in human hepatocytes; settings: positive control 1 mM
Description: (§6) After culture and complete induction, total mRNA was extracted by TRNzol RNA Extraction Kit (purchased from Tiangen Biochemical Technology Co., Ltd., Beijing). The RNA was reverse transcribed into cDNA according to the instructions of the Transcriptor First Strand cDNA Synthesis Kit (purchased from Roche, Switzerland). Using reverse transcribed cDNA as a template, amplifying the internal reference genes of β-Actin of the sample and target genes of CYP1A2, CYP2B6, and CYP3A4 respectively to compare the expression differences.

CYP1A2 = test: CYP induction (mRNA, qPCR) in human hepatocytes; type: in vitro ADME; settings: positive control 50 μM
Description: as §6

[4] = single gavage 25 mg/kg Deg-AZM, by peak area, 25 mg/kg
[5] = single gavage 25 mg/kg Deg-AZM, by peak area

SMILES: CCC(O)C(C)(O)C(O)C(C)N(C)CC(C)CC(C)(O)C(O)C(C)C(O)C(C)C(=O)O (centres unmarked) [M11]
- Proportion in total related substances, Feces [1, 4]: 1.24%
- Proportion in total related substances, Plasma [1]: 2.04%
- Proportion in total related substances, Urine [1, 4]: 0.224%

SMILES: CCC1OC(=O)C(C)C(O)C(C)C(O)C(C)(O)CC(C)CNC(C)C(O)C1(C)O (centres unmarked) [M2]
- Proportion in total related substances, Bile ([1]; rat bile 0-24 h, single gavage 25 mg/kg Deg-AZM, by peak area): 16.5%
- Proportion in total related substances, Feces [1, 5]: 16.6%
- Proportion in total related substances, Plasma [1]: 23.0%
- Proportion in total related substances, Urine [1, 5]: 22.5%
- Cumulative excretion fraction, urine [2]: 5.33%

SMILES: CC(C)NCC(O)COc1cccc2ccccc12 (centres unmarked) [[^3H] Propranolol, reference compound]
- P app AP→BL (Caco-2 cell monolayer): 9.64 ± 1.05 ×10^–6 cm/s

SMILES: COC(=O)c1ccccc1-c1c2ccc(=N)cc-2oc2cc(N)ccc12 [Rhodamine 123, reference compound]
- Papp A→B ([3]; n = 3): 0.0031 ± 0.00141 ×10⁻⁶ cm/s
- Papp B→A ([3]; n = 3): 0.166 ± 0.0287 ×10⁻⁶ cm/s
- efflux ratio ([3]; read-out: ER): 53.5
- Papp A→B (P-gp): 0.00478 ± 0.000709 ×10⁻⁶ cm/s
- Papp B→A (P-gp): 0.0417 ± 0.0152 ×10⁻⁶ cm/s

SMILES: CCC1(c2ccccc2)C(=O)NC(=O)NC1=O [Phenobarbital, reference compound]
- CYP2B6 mRNA induction, times of control group (CYP2B6; hepatocyte batch HUB): 13.5
- CYP2B6 mRNA induction, times of control group (CYP2B6; hepatocyte batch LHuf 17905B): 10.3
- CYP2B6 mRNA induction, times of control group (CYP2B6; hepatocyte batch MWB): 14.7

SMILES: COc1ccc2[nH]c([S+]([O-])Cc3ncc(C)c(OC)c3C)nc2c1 (centres unmarked) [Omeprazole, reference compound]
- CYP1A2 mRNA induction, times of control group (CYP1A2; hepatocyte batch HUB): 48.2
- CYP1A2 mRNA induction, times of control group (CYP1A2; hepatocyte batch LHuf 17905B): 56.0
- CYP1A2 mRNA induction, times of control group (CYP1A2; hepatocyte batch MWB): 64.6
